{
  "source": "patent US8580806B2",
  "about": "“Salts of 4-methyl N-[3-(4-methyl-imidazol-1-yl)-5-trifluoromethyl-phenyl]-3-(4-pyridin-3-yl-pyrimidin-2-ylamino)-benzamide” (Novartis AG, priority 2005, dated 2013)",
  "format_in_all_cases": "physicochemical",
  "key": {"Bulk corrosivity": {"assay": "Bulk corrosivity", "conditions": "2 day, 80% relative humidity with steel coupon"}, "[1]": {"assay": "Hygroscopicity (moisture uptake v. relative humidity)", "conditions": "when first tested", "protocol": "Hygroscopicity: Sorption/desorption isotherms were collected using a Surface Measurements Systems dynamic vapor sorption device (DVS-1). The measurements were carried out at 25° C."}, "[2]": {"assay": "Solid-state behaviour of the hydrochloride salt (equilibration, grinding, compression)"}, "[3]": {"assay": "Hygroscopicity by TGA after one day at ambient temperature and 93% relative humidity", "conditions": "ambient temperature, listed as Hydrochloride (form B)", "protocol": "The hygroscopicity of the salts of the invention was determined by TGA after one day at ambient temperature and 93% relative humidity."}, "[4]": {"assay": "Stability of solutions or suspensions (Table 15)"}, "[5]": {"assay": "Intrinsic Dissolution Rate (rotating disk method)", "conditions": "Water, 37° C., 200 rpm", "protocol": "Intrinsic Dissolution Rate (IDR): Dissolution rate measurements were performed at 37° C. using the rotating disk method (VanKell Instrument). A single rotation speed of 200 rpm was used. For IDR in 0.1 N HCl, an 800 mL volume, and for IDE in water, a 200 mL volume were used. The solution was continuously pumped through a UV measuring cell and recycled to the dissolution vessel."}, "[6]": {"assay": "Decomposition temperature by TGA", "conditions": "as stated in the description of the embodiments; listed as hydrochloride salt", "protocol": "The LOD and decomposition temperature of the salts of the invention were determined by TGA, and the melting point was determined by DSC."}, "[7]": {"assay": "pH of 1% solution or suspension in water", "conditions": "1% in water"}, "[8]": {"assay": "Solid state stability: heat, humidity, xenon light (Table 15)"}, "[9]": {"conditions": "0.1% solutions or suspensions, 1 week at 80° C., Acetonitrile"}, "[10]": {"conditions": "0.1% solutions or suspensions, 1 week at 80° C., Ethanol"}, "[11]": {"conditions": "0.1% solutions or suspensions, 1 week at 80° C., Methanol"}, "[12]": {"conditions": "0.1% solutions or suspensions, 1 week at 80° C., Water (pH measured: 4.74; pH measured for HCl salt: 4.22)"}, "[13]": {"conditions": "0.1% solutions or suspensions, 1 week at 80° C., pH 1 (pH measured: 1.26)"}, "[14]": {"conditions": "0.1% solutions or suspensions, 1 week at 80° C., pH 2 (pH measured: 2.00)"}, "[15]": {"conditions": "0.1% solutions or suspensions, 1 week at 80° C., pH 3 (pH measured: 2.94)"}, "[16]": {"conditions": "0.1% solutions or suspensions, 1 week at 80° C., pH 5 (pH measured: 5.01)"}, "[17]": {"conditions": "0.1% solutions or suspensions, 1 week at 80° C., pH 7 (pH measured: 6.02)"}, "[18]": {"conditions": "0.1% solutions or suspensions, 1 week at 80° C., pH 9 (pH measured: 8.92)"}, "[19]": {"conditions": "0.1% solutions or suspensions, 1 week at 80° C., pH 11 (pH measured: 10.86)"}, "[20]": {"conditions": "0.1% solutions or suspensions, PH 1, 1 week @ 50° C."}, "[21]": {"conditions": "2% solutions or suspensions, 1 day at room temperature, 0.5% CMC"}, "[22]": {"conditions": "2% solutions or suspensions, 1 day at room temperature, 0.5% HPMC cellulose 4000"}, "[23]": {"conditions": "2% solutions or suspensions, 1 day at room temperature, 0.8% Tween 80"}, "[24]": {"conditions": "5% solutions in DMSO, 1 day at room temperature, 1:100 dilution in pH 6.8 buffer"}, "[25]": {"conditions": "Solid state, 1 week 80° C., 75% relative humidity, 30% in mixture 1"}, "[26]": {"conditions": "Solid state, 1 week 80° C., 75% relative humidity, 30% in mixture 2"}, "[27]": {"conditions": "Solid state, 1 week 80° C., 75% relative humidity, Bulk (HPLC)"}, "[28]": {"conditions": "Solid state, 1 week 80° C., tight container, 30% in mixture 1"}, "[29]": {"conditions": "Solid state, 1 week 80° C., tight container, 30% in mixture 2"}, "[30]": {"conditions": "Solid state, 1 week 80° C., tight container, Bulk (HPLC)"}, "[31]": {"conditions": "Xenon light (approximately 200 kLuxh), Bulk (HPLC)"}},
  "note": "Structures can show the parent of a compound that is named as a salt.",
  "data": [
    {"smiles": "Cc1cn(-c2cc(NC(=O)c3ccc(C)c(Nc4nccc(-c5cccnc5)n4)c3)cc(C(F)(F)F)c2)cn1", "note": "[Hydrochloride monohydrate (form B), 4-methyl-N-[3-(4-methyl-imidazol-1-yl)-5-trifluoromethyl-phenyl]-3-(4-pyridin-3-yl-pyrimidin-2-ylamino)-benzamide monohydrochloride monohydrate salt]", "values": [
      {"measurement": "Bulk corrosivity", "setting": "Bulk corrosivity", "value": "No change"},
      {"measurement": "moisture uptake", "setting": "[1]; 60% relative humidity", "value": "up to 2%"},
      {"measurement": "moisture uptake", "setting": "[1]; 95% relative humidity", "value": "up to 2.7%"},
      {"measurement": "behaviour upon compression", "setting": "[2]; compression", "value": "can withstand compression"},
      {"measurement": "behaviour upon grinding", "setting": "[2]; grinding", "value": "becomes amorphous"},
      {"measurement": "% moisture gain", "setting": "[3]", "value": 0.20, "unit": "%"},
      {"measurement": "Appearance", "setting": "[4]; [9]", "value": "B↓"},
      {"measurement": "Assay", "setting": "[4]; [9]", "value": 100.33},
      {"measurement": "Assay [% area]: bracketed % area", "setting": "[4]; [9]", "value": 100.00, "unit": "% area"},
      {"measurement": "Appearance", "setting": "[4]; [10]", "value": "A*"},
      {"measurement": "Assay", "setting": "[4]; [10]", "value": 100.41},
      {"measurement": "Assay [% area]: bracketed % area", "setting": "[4]; [10]", "value": 100.00, "unit": "% area"},
      {"measurement": "Appearance", "setting": "[4]; [11]", "value": "A*"},
      {"measurement": "Assay", "setting": "[4]; [11]", "value": 99.169},
      {"measurement": "Assay [% area]: bracketed % area", "setting": "[4]; [11]", "value": 98.72, "unit": "% area"},
      {"measurement": "Appearance", "setting": "[4]; [12]", "value": "A↓"},
      {"measurement": "Assay", "setting": "[4]; [12]", "value": 101.43},
      {"measurement": "Assay [% area]: bracketed % area", "setting": "[4]; [12]", "value": 100.00, "unit": "% area"},
      {"measurement": "Appearance", "setting": "[4]; [13]", "value": "A*"},
      {"measurement": "Assay", "setting": "[4]; [13]", "value": 46.68},
      {"measurement": "Assay [% area]: bracketed % area", "setting": "[4]; [13]", "value": 42.93, "unit": "% area"},
      {"measurement": "Appearance", "setting": "[4]; [14]", "value": "B↓"},
      {"measurement": "Assay", "setting": "[4]; [14]", "value": 91.77},
      {"measurement": "Assay [% area]: bracketed % area", "setting": "[4]; [14]", "value": 91.61, "unit": "% area"},
      {"measurement": "Appearance", "setting": "[4]; [15]", "value": "B↓"},
      {"measurement": "Assay", "setting": "[4]; [15]", "value": 98.84},
      {"measurement": "Assay [% area]: bracketed % area", "setting": "[4]; [15]", "value": 100.00, "unit": "% area"},
      {"measurement": "Appearance", "setting": "[4]; [16]", "value": "A↓"},
      {"measurement": "Assay", "setting": "[4]; [16]", "value": 100.02},
      {"measurement": "Assay [% area]: bracketed % area", "setting": "[4]; [16]", "value": 100.00, "unit": "% area"},
      {"measurement": "Appearance", "setting": "[4]; [17]", "value": "B↓"},
      {"measurement": "Assay", "setting": "[4]; [17]", "value": 99.56},
      {"measurement": "Assay [% area]: bracketed % area", "setting": "[4]; [17]", "value": 100.00, "unit": "% area"},
      {"measurement": "Appearance", "setting": "[4]; [18]", "value": "B↓"},
      {"measurement": "Assay", "setting": "[4]; [18]", "value": 101.19},
      {"measurement": "Assay [% area]: bracketed % area", "setting": "[4]; [18]", "value": 100.00, "unit": "% area"},
      {"measurement": "Appearance", "setting": "[4]; [19]", "value": "B↓"},
      {"measurement": "Assay", "setting": "[4]; [19]", "value": 102.19},
      {"measurement": "Assay [% area]: bracketed % area", "setting": "[4]; [19]", "value": 100.00, "unit": "% area"},
      {"measurement": "Appearance", "setting": "[4]; [20]", "value": "A*"},
      {"measurement": "Assay", "setting": "[4]; [20]", "value": 94.14},
      {"measurement": "Assay [% area]: bracketed % area", "setting": "[4]; [20]", "value": 93.21, "unit": "% area"},
      {"measurement": "Appearance", "setting": "[4]; [21]", "value": "A↓"},
      {"measurement": "Assay", "setting": "[4]; [21]", "value": 103.06},
      {"measurement": "Assay [% area]: bracketed % area", "setting": "[4]; [21]", "value": 100.00, "unit": "% area"},
      {"measurement": "Appearance", "setting": "[4]; [22]", "value": "A↓"},
      {"measurement": "Assay", "setting": "[4]; [22]", "value": 100.44},
      {"measurement": "Assay [% area]: bracketed % area", "setting": "[4]; [22]", "value": 100.00, "unit": "% area"},
      {"measurement": "Appearance", "setting": "[4]; [23]", "value": "A↓"},
      {"measurement": "Assay", "setting": "[4]; [23]", "value": 102.42},
      {"measurement": "Assay [% area]: bracketed % area", "setting": "[4]; [23]", "value": 100.00, "unit": "% area"},
      {"measurement": "Appearance", "setting": "[4]; [24]", "value": "A↓"},
      {"measurement": "Assay", "setting": "[4]; [24]", "value": 101.85},
      {"measurement": "Assay [% area]: bracketed % area", "setting": "[4]; [24]", "value": 100.00, "unit": "% area"},
      {"measurement": "Assay", "setting": "[4]; Unstressed", "value": 99.10},
      {"measurement": "Assay [% area]: bracketed % area", "setting": "[4]; Unstressed", "value": 100.00, "unit": "% area"},
      {"measurement": "Intrinsic dissolution rate", "setting": "[5]", "value": 0.0024, "unit": "mg min^−1 cm^−2"},
      {"measurement": "decomposes at", "setting": "[6]", "value": "about 173 °C"},
      {"measurement": "pH of 1% solution or suspension in water", "setting": "[7]", "value": 2.53},
      {"measurement": "Bulk (XRPD)", "setting": "[8]; Solid state, 1 week 80° C., 75% relative humidity", "value": "No change"},
      {"measurement": "Assay", "setting": "[8]; [25]", "value": 100.88},
      {"measurement": "Assay [% area]: bracketed % area", "setting": "[8]; [25]", "value": 100.00, "unit": "% area"},
      {"measurement": "Assay", "setting": "[8]; [26]", "value": 92.17},
      {"measurement": "Assay [% area]: bracketed % area", "setting": "[8]; [26]", "value": 97.99, "unit": "% area"},
      {"measurement": "Assay", "setting": "[8]; [27]", "value": 100.71},
      {"measurement": "Assay [% area]: bracketed % area", "setting": "[8]; [27]", "value": 100.00, "unit": "% area"},
      {"measurement": "Bulk (XRPD)", "setting": "[8]; Solid state, 1 week 80° C., tight container", "value": "No change"},
      {"measurement": "Assay", "setting": "[8]; [28]", "value": 101.23},
      {"measurement": "Assay [% area]: bracketed % area", "setting": "[8]; [28]", "value": 100.00, "unit": "% area"},
      {"measurement": "Assay", "setting": "[8]; [29]", "value": 93.43},
      {"measurement": "Assay [% area]: bracketed % area", "setting": "[8]; [29]", "value": 97.82, "unit": "% area"},
      {"measurement": "Assay", "setting": "[8]; [30]", "value": 100.77},
      {"measurement": "Assay [% area]: bracketed % area", "setting": "[8]; [30]", "value": 100.00, "unit": "% area"},
      {"measurement": "Bulk (XRPD)", "setting": "[8]; Xenon light (approximately 200 kLuxh)", "value": "No change"},
      {"measurement": "Assay", "setting": "[8]; [31]", "value": 99.73},
      {"measurement": "Assay [% area]: bracketed % area", "setting": "[8]; [31]", "value": 100.00, "unit": "% area"}
    ]}
  ]
}
